The values that follow are results of earlier work, collected in patent US4834966A, “Pharmaceutical composition with analgesic activity” (priority 1986, dated 1989).

Molecules are shown by their SMILES.

Data set [1] relates to gastrointestinal and oral mucosa. Particulars: background statement.
The conditions of data set [2]: background statement.

Consider `CC(C)Cc1ccc(C(C)C(=O)[O-])cc1.[Na+]` (centres unmarked) [Ibuprofen sodium salt], for which, in data set [1], the “gastrointestinal effect of solution pH” value is “gives solutions having a pH which produces gastrointestinal damages”. For the same molecule, in data set [2], the solubility in water result is recorded as “good solubility in water”.
